Measurements published in PubChem BioAssay AID200 (DTP/NCI, 2004).
Where “and” joins values, the source holds several entries; their conditions need not be identical. Equal values may be shown once. Inconclusive results and toxic doses are left out.

System: B6C3F1 mice, B16 melanoma ip, median survival T/C
Experiment: NCI In Vivo Anticancer Drug Screen. Data for tumor model B16 Melanoma (intraperitoneal) in B6C3F1 mice
Details: endpoint: median survival time, schedule: Q01DX009 (ip), higher = longer survival
Procedure: The antitumor activity of compounds was measured in mice bearing transplantable tumors. Survival or tumor size were measured and the results are expressed as the measurement made in the treated group (T) divided by the measurement made in the vehicle treated control group (C). The tumor model used in this assay is B16 Melanoma (intraperitoneal) in B6C3F1 mice

[1] = dose: 12.0 mg/kg/injection, vehicle: saline
[2] = dose: 25.0 mg/kg/injection, vehicle: Klucel (hydroxypropylcellulose) (HPC)
[3] = dose: 50.0 mg/kg/injection, vehicle: Klucel (hydroxypropylcellulose) (HPC)
[4] = dose: 200.0 mg/kg/injection, vehicle: Klucel (hydroxypropylcellulose) (HPC)
[5] = dose: 12.5 mg/kg/injection, vehicle: saline with Tween-80
[6] = dose: 25.0 mg/kg/injection, vehicle: saline with Tween-80
[7] = dose: 100.0 mg/kg/injection, vehicle: Klucel (hydroxypropylcellulose) (HPC)
[8] = dose: 50.0 mg/kg/injection, vehicle: saline with Tween-80
[9] = dose: 25.0 mg/kg/injection, vehicle: saline
[10] = dose: 50.0 mg/kg/injection, vehicle: saline

## CC(=O)O[C@H]1C(=O)[C@@]2(C)C(C(OC(=O)c3ccccc3)[C@]3(O)CC(OC(=O)[C@H](OC(=O)CCC(=O)O)C(NC(=O)c4ccccc4)c4ccccc4)C(C)=C1C3(C)C)C1(OC(C)=O)COC1C[C@@H]2OC(=O)CCC(=O)O (stereo partly drawn)
dose: 2.75 mg/kg/injection, vehicle: sodium bicarbonate
  T/C: 109 % of control
dose: 2.75 mg/kg/injection, vehicle: water
  T/C: 120 % of control
dose: 5.5 mg/kg/injection, vehicle: sodium bicarbonate
  T/C: 113 % of control
dose: 5.5 mg/kg/injection, vehicle: water
  T/C: 114 % of control
dose: 11.0 mg/kg/injection, vehicle: sodium bicarbonate
  T/C: 124 % of control
dose: 22.0 mg/kg/injection, vehicle: sodium bicarbonate
  T/C: 105 % of control
dose: 22.0 mg/kg/injection, vehicle: water
  T/C: 109 % of control
dose: 44.0 mg/kg/injection, vehicle: sodium bicarbonate
  T/C: 114 % of control
dose: 44.0 mg/kg/injection, vehicle: water
  T/C: 166 % of control

## CNCCN=c1ccc2c3c1c(O)c1c(O)ccc(=O)c1c3[nH]n2CCNCCO
dose: 0.38 mg/kg/injection, vehicle: water
  T/C: 273 % of control
dose: 0.75 mg/kg/injection, vehicle: water
  T/C: 357 % of control
dose: 1.5 mg/kg/injection, vehicle: water
  T/C: 357 % of control
dose: 3.0 mg/kg/injection, vehicle: water
  T/C: 309 % of control
dose: 3.12 mg/kg/injection, vehicle: water
  T/C: 169 % of control

## NC(=O)c1ccc[n+](Cc2c(Cl)cccc2Cl)c1
dose: 1.5 mg/kg/injection, vehicle: saline
  T/C: 98 % of control
dose: 3.0 mg/kg/injection, vehicle: saline
  T/C: 98 % of control
dose: 6.0 mg/kg/injection, vehicle: saline
  T/C: 103 % of control
[1]
  T/C: 98 % of control

## c1cc(OCC2CO2)ccc1OCC1CO1 (stereo not drawn)
dose: 12.5 mg/kg/injection, vehicle: Klucel (hydroxypropylcellulose) (HPC)
  T/C: 109 % of control
[2]
  T/C: 121 % of control and 103 % of control
[3]
  T/C: 105 % of control
[4]
  T/C: 117 % of control

## C/C(=N\NC(=S)N1CC2CCC(CC2)C1)c1nccs1
dose: 6.25 mg/kg/injection, vehicle: saline with Tween-80
  T/C: 100 % of control
[5]
  T/C: 107 % of control
[6]
  T/C: 105 % of control

## NC(=S)c1ncn(C2OC(COC=O)C(OC=O)C2OC=O)c1NC=O (stereo not drawn)
[2]
  T/C: 100 % of control
[3]
  T/C: 100 % of control
[7]
  T/C: 92 % of control
[4]
  T/C: 87 % of control

## Cc1oc2c(C)c3oc(=O)cc(C)c3cc2c1CCl
[5]
  T/C: 91 % of control and 97 % of control
[6]
  T/C: 87 % of control and 88 % of control (2×)
[8]
  T/C: 102 % of control

## [Cl][Hg][Cl]
dose: 0.05 mg/kg/injection, vehicle: saline
  T/C: 105 % of control
dose: 0.06 mg/kg/injection, vehicle: saline
  T/C: 96 % of control
dose: 0.1 mg/kg/injection, vehicle: saline
  T/C: 97 % of control
dose: 0.12 mg/kg/injection, vehicle: saline
  T/C: 104 % of control
dose: 0.2 mg/kg/injection, vehicle: saline
  T/C: 100 % of control
dose: 0.25 mg/kg/injection, vehicle: saline
  T/C: 104 % of control
dose: 0.4 mg/kg/injection, vehicle: saline
  T/C: 102 % of control
dose: 0.5 mg/kg/injection, vehicle: saline
  T/C: 86 % of control
dose: 0.8 mg/kg/injection, vehicle: saline
  T/C: 86 % of control

## CCCCC/C(C=C(C#N)C#N)=C/c1ccccc1
[6]
  T/C: 111 % of control
[8]
  T/C: 106 % of control
dose: 100.0 mg/kg/injection, vehicle: saline with Tween-80
  T/C: 123 % of control

## Nc1cccc(=O)[nH]1
dose: 25.0 mg/kg/injection, vehicle: suspension in saline
  T/C: 93 % of control
dose: 50.0 mg/kg/injection, vehicle: suspension in saline
  T/C: 95 % of control
dose: 100.0 mg/kg/injection, vehicle: suspension in saline
  T/C: 94 % of control
dose: 200.0 mg/kg/injection, vehicle: suspension in saline
  T/C: 94 % of control
dose: 400.0 mg/kg/injection, vehicle: suspension in saline
  T/C: 93 % of control

## O=C(C1CO1)C(Cl)(Cl)Cl (stereo not drawn)
[1]
  T/C: 92 % of control
[9]
  T/C: 106 % of control

## CN(C)CCC(C#N)(CCC1CCCCC1)c1ccccc1 (stereo not drawn)
dose: 10.0 mg/kg/injection, vehicle: saline
  T/C: 95 % of control
dose: 20.0 mg/kg/injection, vehicle: saline
  T/C: 95 % of control
dose: 40.0 mg/kg/injection, vehicle: saline
  T/C: 92 % of control

## Oc1ccc(O)cc1
dose: 3.13 mg/kg/injection, vehicle: saline
  T/C: 101 % of control
dose: 6.25 mg/kg/injection, vehicle: saline
  T/C: 88 % of control
dose: 12.5 mg/kg/injection, vehicle: saline
  T/C: 95 % of control
[9]
  T/C: 110 % of control
[10]
  T/C: 98 % of control

## Cc1nc2ccccc2c(C(=O)NO)[n+]1[O-]
dose: 3.13 micrograms/kg/injection, vehicle: other
  T/C: 100 % of control
dose: 6.25 micrograms/kg/injection, vehicle: other
  T/C: 104 % of control
dose: 12.5 micrograms/kg/injection, vehicle: other
  T/C: 122 % of control
dose: 25.0 micrograms/kg/injection, vehicle: other
  T/C: 110 % of control

## OCC[N+]12CN3CN(CN(C3)C1)C2
[9]
  T/C: 101 % of control
[10]
  T/C: 109 % of control
dose: 100.0 mg/kg/injection, vehicle: saline
  T/C: 103 % of control
dose: 200.0 mg/kg/injection, vehicle: saline
  T/C: 108 % of control
dose: 400.0 mg/kg/injection, vehicle: saline
  T/C: 108 % of control

## Clc1ccc(C2SC=Cc3ccccc32)cc1 (stereo not drawn)
[2]
  T/C: 114 % of control
[3]
  T/C: 114 % of control
[7]
  T/C: 118 % of control
[4]
  T/C: 112 % of control
dose: 400.0 mg/kg/injection, vehicle: Klucel (hydroxypropylcellulose) (HPC)
  T/C: 103 % of control
